Key:
[1] = target: c-Src(T341M) (Homo sapiens (Human), UniProt P12931, T341M); assay: Kinase inhibition assay (KinaseProfiler, 33P-ATP); type: biochemical; details: Src(T341M)(h); 10 μM; read-out: The percentage of the remaining active protein
[2] = target: c-RAF (Homo sapiens (Human), UniProt P04049); assay: Kinase inhibition assay (KinaseProfiler, 33P-ATP); type: biochemical; details: c-RAF(h); 10 μM; read-out: The percentage of the remaining active protein
[3] = target: Yes (Homo sapiens (Human), UniProt P07947); assay: Kinase inhibition assay (KinaseProfiler, 33P-ATP); type: biochemical
[4] = target: KDR (Homo sapiens (Human), UniProt P35968); assay: Kinase inhibition assay (KinaseProfiler, 33P-ATP); type: biochemical; details: KDR(h); 10 μM; read-out: The percentage of the remaining active protein
[5] = target: FGFR1 (Homo sapiens (Human), UniProt P11362); assay: Kinase inhibition assay (KinaseProfiler, 33P-ATP); type: biochemical; details: FGFR1(h); 10 μM; read-out: The percentage of the remaining active protein
[6] = target: EphB2 (Homo sapiens (Human), UniProt P29323); assay: Kinase inhibition assay (KinaseProfiler, 33P-ATP); type: biochemical
[7] = target: EphB4 (Homo sapiens (Human), UniProt P54760); assay: Kinase inhibition assay (KinaseProfiler, 33P-ATP); type: biochemical; details: EphB4(h); 10 μM; read-out: The percentage of the remaining active protein
[8] = target: ErbB2 (Homo sapiens (Human), UniProt P04626); assay: Kinase inhibition assay (KinaseProfiler, 33P-ATP); type: biochemical
[9] = target: TrkA (Homo sapiens (Human), UniProt P04629); assay: Kinase inhibition assay (KinaseProfiler, 33P-ATP); type: biochemical; details: TrkA(h); 10 μM; read-out: The percentage of the remaining active protein
[10] = target: IKKβ (Homo sapiens (Human), UniProt O14920); assay: Kinase inhibition assay (KinaseProfiler, 33P-ATP); type: biochemical; details: IKKβ(h); 10 μM; read-out: The percentage of the remaining active protein
[11] = target: PDGFRα (Homo sapiens (Human), UniProt P16234); assay: Kinase inhibition assay (KinaseProfiler, 33P-ATP); type: biochemical; details: PDGFRα(h); 10 μM; read-out: The percentage of the remaining active protein
[12] = target: EGFR (Homo sapiens (Human), UniProt P00533); assay: Kinase inhibition assay (KinaseProfiler, 33P-ATP); type: biochemical; details: EGFR(h); 10 μM; read-out: The percentage of the remaining active protein
[13] = target: Lyn (Homo sapiens (Human), UniProt P07948); assay: Kinase inhibition assay (KinaseProfiler, 33P-ATP); type: biochemical
[14] = target: ALK(h) (Homo sapiens (Human), UniProt Q9UM73); assay: Kinase inhibition assay (KinaseProfiler, 33P-ATP); type: biochemical; details: 10 μM, read-out: The percentage of the remaining active protein
[15] = target: CDK7 (Homo sapiens (Human), UniProt P50613); assay: Kinase inhibition assay (KinaseProfiler, 33P-ATP); type: biochemical; details: CDK7/cyclinH/MAT1(h); 10 μM; read-out: The percentage of the remaining active protein
[16] = target: CHK1(h) (Homo sapiens (Human), UniProt O14757); assay: Kinase inhibition assay (KinaseProfiler, 33P-ATP); type: biochemical; details: 10 μM, read-out: The percentage of the remaining active protein
[17] = target: JNK1α1(h) (Homo sapiens (Human), UniProt P45983); assay: Kinase inhibition assay (KinaseProfiler, 33P-ATP); type: biochemical; details: 10 μM, read-out: The percentage of the remaining active protein
[18] = target: mTOR(h) (Homo sapiens (Human), UniProt P42345); assay: Kinase inhibition assay (KinaseProfiler, 33P-ATP); type: biochemical; details: 10 μM, read-out: The percentage of the remaining active protein
[19] = target: Pim-1(h) (Homo sapiens (Human), UniProt P11309); assay: Kinase inhibition assay (KinaseProfiler, 33P-ATP); type: biochemical; details: 10 μM, read-out: The percentage of the remaining active protein
[20] = target: PKA(h) (Homo sapiens (Human), UniProt P17612); assay: Kinase inhibition assay (KinaseProfiler, 33P-ATP); type: biochemical; details: 10 μM, read-out: The percentage of the remaining active protein
[21] = target: PKBα(h) (Homo sapiens (Human), UniProt P31749); assay: Kinase inhibition assay (KinaseProfiler, 33P-ATP); type: biochemical; details: 10 μM, read-out: The percentage of the remaining active protein
[22] = target: RIPK2(h) (Homo sapiens (Human), UniProt O43353); assay: Kinase inhibition assay (KinaseProfiler, 33P-ATP); type: biochemical; details: 10 μM, read-out: The percentage of the remaining active protein
[23] = target: TBK1(h) (Homo sapiens (Human), UniProt Q9UHD2); assay: Kinase inhibition assay (KinaseProfiler, 33P-ATP); type: biochemical; details: 10 μM, read-out: The percentage of the remaining active protein
[24] = tested on: A549; assay: Cell proliferation inhibition assay (MTT); type: cell-based; details: Homo sapiens; A549; MTT, 72 hours; read-out: Proliferation inhibitory activity IC50
Experimental: (§1) The cells were seeded in 96-well plates with 200 μL of cell suspension per well and incubated overnight in a cell culture medium with a cell concentration of 1 2×10^4 cells/mL. The next day, the supernatant was discarded (the suspension cell was centrifuged before it) and the cells were treated with gradient concentrations of the test compound, respectively. […] After 72 hours, add 20 μL of MTT reagent at a concentration of 5 mg/mL per well. After incubation for 2-4 h, the supernatant was discarded and 150 μL of DMSO was added to each well. […] Relative cell proliferation inhibition rate=([MUT]-[MUT])×100%/[MUT]. The experiment was repeated at least 3 times. Experimental data were expressed as mean, data statistics using t test, P<0.05 for the difference was statistically significant.

[25] = tested on: MDA-MB-435; assay: Cell proliferation inhibition assay (MTT); type: cell-based, human; details: Homo sapiens; MDA-MB-435; MTT, 72 hours; read-out: Proliferative inhibitory activity MDA-MB-435 (IC50 class)
[26] = tested on: HT29; assay: Cell proliferation inhibition assay (MTT); type: cell-based; details: Homo sapiens, HT-29; HT29; MTT, 72 hours; read-out: Proliferation inhibitory activity IC50
Experimental: as §1

[27] = tested on: breast cancer cell line MDA-MB-231; type: in vivo; details: MDA-MB-231 subcutaneous tumor, nude mice
Experimental: When the tumors grew to volumes of 200 mm^3, all the mice were randomized into groups (6 mice for each group) and dosed with indicated compounds.
Observation indexes: mouse body weight and the tumor size were measured once every three days, the tumor volume is calculated (length×width^2×0.5).

[28] = target: c-Src(1-530) (Homo sapiens (Human), UniProt P12931); assay: Kinase inhibition assay (KinaseProfiler, 33P-ATP); details: read-out: The percentage of the remaining active protein
[29] = target: B-Raf (Homo sapiens (Human), UniProt P15056); assay: Kinase inhibition assay (KinaseProfiler, 33P-ATP); details: read-out: The percentage of the remaining active protein
[30] = target: Bmx (Homo sapiens (Human), UniProt P51813); assay: Kinase inhibition assay (KinaseProfiler, 33P-ATP)
Chain of Bmx (P51813 whole entry): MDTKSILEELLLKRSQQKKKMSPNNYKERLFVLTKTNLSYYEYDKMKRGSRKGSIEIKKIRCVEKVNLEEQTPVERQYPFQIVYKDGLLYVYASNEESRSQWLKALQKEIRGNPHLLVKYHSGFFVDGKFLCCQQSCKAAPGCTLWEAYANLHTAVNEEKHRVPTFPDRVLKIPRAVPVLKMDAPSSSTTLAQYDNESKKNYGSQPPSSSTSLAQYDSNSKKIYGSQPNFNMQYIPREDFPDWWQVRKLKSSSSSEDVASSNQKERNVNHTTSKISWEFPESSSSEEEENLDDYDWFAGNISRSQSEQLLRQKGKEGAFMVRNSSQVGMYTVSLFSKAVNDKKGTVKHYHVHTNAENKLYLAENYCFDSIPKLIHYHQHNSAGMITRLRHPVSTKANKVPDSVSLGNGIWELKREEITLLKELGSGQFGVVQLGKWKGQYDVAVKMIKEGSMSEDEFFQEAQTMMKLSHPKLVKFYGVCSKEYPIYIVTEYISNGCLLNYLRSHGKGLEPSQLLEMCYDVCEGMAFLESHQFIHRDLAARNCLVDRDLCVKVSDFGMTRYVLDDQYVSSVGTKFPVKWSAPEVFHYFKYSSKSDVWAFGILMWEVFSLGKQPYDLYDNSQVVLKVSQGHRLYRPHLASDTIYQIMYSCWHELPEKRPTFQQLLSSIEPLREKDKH

Chain of EphB2 (P29323 19-1055): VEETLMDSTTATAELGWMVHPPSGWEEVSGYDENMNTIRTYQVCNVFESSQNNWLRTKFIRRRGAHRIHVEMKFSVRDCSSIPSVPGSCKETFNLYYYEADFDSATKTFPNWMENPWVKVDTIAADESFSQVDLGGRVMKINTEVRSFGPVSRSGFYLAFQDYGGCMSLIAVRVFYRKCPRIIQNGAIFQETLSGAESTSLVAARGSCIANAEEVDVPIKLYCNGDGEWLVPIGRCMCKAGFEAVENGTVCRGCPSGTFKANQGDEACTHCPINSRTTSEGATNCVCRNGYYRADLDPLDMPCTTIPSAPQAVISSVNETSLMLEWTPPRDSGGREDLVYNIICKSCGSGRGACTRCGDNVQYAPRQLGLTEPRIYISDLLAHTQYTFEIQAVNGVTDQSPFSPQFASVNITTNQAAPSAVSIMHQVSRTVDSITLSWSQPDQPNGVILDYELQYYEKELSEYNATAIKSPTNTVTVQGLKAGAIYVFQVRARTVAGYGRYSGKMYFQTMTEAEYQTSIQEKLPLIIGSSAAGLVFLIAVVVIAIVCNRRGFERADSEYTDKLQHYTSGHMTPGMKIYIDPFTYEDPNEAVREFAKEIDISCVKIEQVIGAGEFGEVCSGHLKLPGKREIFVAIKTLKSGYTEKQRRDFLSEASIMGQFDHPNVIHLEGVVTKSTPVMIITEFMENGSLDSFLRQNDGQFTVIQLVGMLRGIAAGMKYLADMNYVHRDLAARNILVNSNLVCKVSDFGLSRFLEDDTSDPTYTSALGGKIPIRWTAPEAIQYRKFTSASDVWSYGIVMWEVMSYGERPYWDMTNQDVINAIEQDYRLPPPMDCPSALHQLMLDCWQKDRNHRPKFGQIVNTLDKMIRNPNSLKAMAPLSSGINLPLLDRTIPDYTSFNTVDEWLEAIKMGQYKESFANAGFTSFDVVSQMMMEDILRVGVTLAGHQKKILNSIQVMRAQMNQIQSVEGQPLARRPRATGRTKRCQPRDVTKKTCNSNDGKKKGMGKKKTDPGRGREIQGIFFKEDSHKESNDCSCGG
Chain of Lyn (P07948 whole entry): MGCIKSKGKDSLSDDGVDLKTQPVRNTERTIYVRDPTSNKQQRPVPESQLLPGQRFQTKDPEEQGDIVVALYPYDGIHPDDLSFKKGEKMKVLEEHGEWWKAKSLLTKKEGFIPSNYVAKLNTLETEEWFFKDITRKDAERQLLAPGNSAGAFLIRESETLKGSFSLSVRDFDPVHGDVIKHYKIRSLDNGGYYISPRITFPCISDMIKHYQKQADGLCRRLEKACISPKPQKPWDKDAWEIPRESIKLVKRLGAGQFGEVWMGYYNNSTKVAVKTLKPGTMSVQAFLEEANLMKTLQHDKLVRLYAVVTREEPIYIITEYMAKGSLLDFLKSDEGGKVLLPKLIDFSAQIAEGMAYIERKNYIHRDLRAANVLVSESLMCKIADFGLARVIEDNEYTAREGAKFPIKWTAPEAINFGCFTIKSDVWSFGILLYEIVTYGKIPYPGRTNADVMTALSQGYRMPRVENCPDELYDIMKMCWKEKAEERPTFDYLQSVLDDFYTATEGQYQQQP
Chain of Yes (P07947 whole entry): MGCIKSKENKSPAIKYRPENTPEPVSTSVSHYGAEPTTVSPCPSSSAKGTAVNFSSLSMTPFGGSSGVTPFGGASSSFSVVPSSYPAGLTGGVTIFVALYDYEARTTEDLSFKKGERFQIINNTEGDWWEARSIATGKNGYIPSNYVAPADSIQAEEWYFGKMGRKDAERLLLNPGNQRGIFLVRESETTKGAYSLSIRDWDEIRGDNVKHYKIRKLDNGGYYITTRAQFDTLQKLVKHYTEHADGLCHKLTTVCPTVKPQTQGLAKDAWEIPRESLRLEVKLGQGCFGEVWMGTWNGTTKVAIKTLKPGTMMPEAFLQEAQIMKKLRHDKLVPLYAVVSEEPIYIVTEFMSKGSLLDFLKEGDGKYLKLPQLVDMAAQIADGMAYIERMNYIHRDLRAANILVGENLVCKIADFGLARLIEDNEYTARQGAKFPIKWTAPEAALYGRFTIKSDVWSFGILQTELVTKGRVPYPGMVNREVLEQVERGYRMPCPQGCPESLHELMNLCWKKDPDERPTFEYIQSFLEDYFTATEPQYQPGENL
Chain of ErbB2 (P04626 23-1255): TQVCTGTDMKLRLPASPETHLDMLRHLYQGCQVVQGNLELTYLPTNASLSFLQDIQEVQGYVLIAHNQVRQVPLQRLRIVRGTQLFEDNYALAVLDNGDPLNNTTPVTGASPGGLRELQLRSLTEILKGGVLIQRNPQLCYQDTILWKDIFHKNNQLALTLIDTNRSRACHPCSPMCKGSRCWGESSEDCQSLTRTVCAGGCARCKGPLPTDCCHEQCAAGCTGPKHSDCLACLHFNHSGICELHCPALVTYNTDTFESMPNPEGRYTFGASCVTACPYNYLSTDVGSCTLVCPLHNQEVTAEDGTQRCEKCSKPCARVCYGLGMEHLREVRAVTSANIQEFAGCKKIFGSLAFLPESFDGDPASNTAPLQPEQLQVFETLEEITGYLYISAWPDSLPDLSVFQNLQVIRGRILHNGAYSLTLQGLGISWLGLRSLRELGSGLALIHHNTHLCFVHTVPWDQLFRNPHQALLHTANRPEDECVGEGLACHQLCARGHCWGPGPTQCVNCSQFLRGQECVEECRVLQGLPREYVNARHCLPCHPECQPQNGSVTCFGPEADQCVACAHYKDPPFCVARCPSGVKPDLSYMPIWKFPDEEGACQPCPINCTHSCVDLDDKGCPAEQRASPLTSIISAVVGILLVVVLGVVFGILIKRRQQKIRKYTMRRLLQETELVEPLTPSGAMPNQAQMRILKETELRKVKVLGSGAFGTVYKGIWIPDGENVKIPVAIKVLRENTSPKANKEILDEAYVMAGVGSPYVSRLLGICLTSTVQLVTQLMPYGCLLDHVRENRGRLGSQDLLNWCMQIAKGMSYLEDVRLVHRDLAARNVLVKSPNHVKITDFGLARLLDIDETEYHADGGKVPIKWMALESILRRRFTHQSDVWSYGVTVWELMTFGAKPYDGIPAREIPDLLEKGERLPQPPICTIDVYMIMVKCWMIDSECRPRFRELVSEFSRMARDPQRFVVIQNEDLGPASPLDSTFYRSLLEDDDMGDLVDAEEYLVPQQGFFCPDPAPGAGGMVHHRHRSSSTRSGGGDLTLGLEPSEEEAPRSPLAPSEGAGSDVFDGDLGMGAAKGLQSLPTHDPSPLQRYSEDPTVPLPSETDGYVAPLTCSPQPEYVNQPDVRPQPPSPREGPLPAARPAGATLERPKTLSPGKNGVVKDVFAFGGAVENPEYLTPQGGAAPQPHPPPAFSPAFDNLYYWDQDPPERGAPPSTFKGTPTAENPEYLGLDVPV
Chain of Pim-1(h) (P11309 whole entry): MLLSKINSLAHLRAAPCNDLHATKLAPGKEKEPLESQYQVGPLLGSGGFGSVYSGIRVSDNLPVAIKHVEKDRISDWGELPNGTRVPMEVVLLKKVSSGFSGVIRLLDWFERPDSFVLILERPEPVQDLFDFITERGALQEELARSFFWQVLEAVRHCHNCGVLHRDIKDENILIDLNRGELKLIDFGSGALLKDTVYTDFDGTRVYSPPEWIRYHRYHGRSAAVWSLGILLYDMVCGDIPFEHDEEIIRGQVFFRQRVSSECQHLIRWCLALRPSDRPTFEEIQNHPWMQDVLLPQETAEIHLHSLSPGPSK
Chain of CHK1(h) (O14757 whole entry): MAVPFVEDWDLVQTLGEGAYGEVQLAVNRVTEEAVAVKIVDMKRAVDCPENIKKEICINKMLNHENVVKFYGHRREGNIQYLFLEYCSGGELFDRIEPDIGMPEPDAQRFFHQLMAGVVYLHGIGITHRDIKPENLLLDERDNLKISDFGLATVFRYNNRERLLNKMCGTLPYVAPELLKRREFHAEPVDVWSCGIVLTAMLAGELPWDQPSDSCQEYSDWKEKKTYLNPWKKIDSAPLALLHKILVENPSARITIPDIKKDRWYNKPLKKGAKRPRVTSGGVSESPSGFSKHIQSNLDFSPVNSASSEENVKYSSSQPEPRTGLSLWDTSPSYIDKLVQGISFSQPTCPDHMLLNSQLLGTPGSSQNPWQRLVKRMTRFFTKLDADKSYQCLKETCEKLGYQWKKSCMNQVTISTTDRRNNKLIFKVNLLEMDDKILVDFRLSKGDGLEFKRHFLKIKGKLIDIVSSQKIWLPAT

## Cc1ccc(NC(=O)c2ccc(C)c(C(F)(F)F)c2)cc1C#Cc1nn([C@H]2CC[C@H](O)CC2)c2ncnc(N)c12 [Compound 93]
[1]
  remaining activity at 10 µM: 20%
[2]
  remaining activity at 10 µM: 24%
[3]; Yes(h), 10 μM, read-out: The percentage of the remaining active protein
  remaining activity at 10 µM: 0%
[3]; Yes, ATP at Km
  IC50: 1 nM
[4]
  remaining activity at 10 µM: 2%
[5]
  remaining activity at 10 µM: 1%
[6]; EphB2(h), 10 μM, read-out: The percentage of the remaining active protein
  remaining activity at 10 µM: -1%
[6]; EphB2, ATP at Km
  IC50: 33 nM
[7]
  remaining activity at 10 µM: 1%
[8]; ErbB2(h), 10 μM, read-out: The percentage of the remaining active protein
  remaining activity at 10 µM: 4%
[8]; ErbB2, ATP at Km
  IC50: 165 nM
[9]
  remaining activity at 10 µM: 72%
[10]
  remaining activity at 10 µM: 33%
[11]
  remaining activity at 10 µM: 60%
[12]
  remaining activity at 10 µM: 11%
[13]; Lyn(h), 10 μM, read-out: The percentage of the remaining active protein
  remaining activity at 10 µM: 0%
[13]; Lyn, ATP at Km
  IC50: 4 nM
[14]
  remaining activity at 10 µM: 92%
[15]
  remaining activity at 10 µM: 103%
[16]
  remaining activity at 10 µM: 114%
[17]
  remaining activity at 10 µM: 35%
[18]
  remaining activity at 10 µM: 101%
[19]
  remaining activity at 10 µM: 99%
[20]
  remaining activity at 10 µM: 60%
[21]
  remaining activity at 10 µM: 101%
[22]
  remaining activity at 10 µM: 21%
[23]
  remaining activity at 10 µM: 104%
[24]
  IC50: > 10000 nM
[25]
  IC50: < 100 nM
[26]
  IC50: 230 nM
[27]; 20 mg/kg per day, oral
  tumor growth inhibition: significantly inhibit tumor growth
[27]; vs paclitaxel 10 mg/kg per week tail vein, dasatinib 40 mg/kg daily oral
  inhibitory effect compared to positive control: superior inhibitory effect compared to the positive control (paclitaxel)
[28]
  remaining activity at 10 µM: 0%
[29]
  remaining activity at 10 µM: 7%
[30]; Bmx, ATP at Km
  IC50: 21 nM
[30]; read-out: The percentage of the remaining active protein
  remaining activity at 10 µM: -1%

From patent US10266537B2, “3-acetylenyl-pyrazole-pyrimidine derivative, and preparation method therefor and uses thereof” (Si Chuan University, priority 2015, dated 2019)
